From US7491794B2, “Macrocyclic compounds as inhibitors of viral replication” (Intermune, Inc., priority 2003, dated 2009)

What was measured:
NS3-NS4A protease = biological target: T1, NS3-NS4A protease (Hepatitis C virus genotype 1a, UniProt P27958); experiment: NS3-NS4A protease assay (NS3 inhibition assay, RETS1 substrate), Section B; type: biochemical; details: read-out: NS3-NS4A IC50
T1 construct: Recombinant E. coli or Baculovirus full-length NS3 was diluted to 3.33 μM with assay buffer; made in house; host or cells: E. coli or baculovirus (BV) system
Outline: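 Kinetic fluorescence read (335 nm excitation, 495 nm emission, 30 min) of RETS1 cleavage by NS3/NS4A-2 complex, 2 nM E. coli or 3 nM baculovirus NS3, after 10 min room-temperature compound pre-incubation. Four-parameter-fit IC50s converted to Ki by Cheng–Prusoff, Ki=IC50/(1+[S]/Km).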

[1] = test system: HCV sub-genomic replicon, GS4.3; experiment: Quantitation by ELISA of NPTII in the HCV sub-genomic replicon, GS4.3, Section B; type: cell-based; details: Hepatitis C virus; GS4.3 cells, 72 h incubation; read-out: Replicon EC50
Outline: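 NPTII marker protein in lysates was quantified by ELISA read at 450 nm after 72 h inhibitor exposure (3-fold series, final DMSO 1%, G418-free medium) of HuH-7 cells stably harbouring the subgenomic HCV replicon. Values relative to DMSO-treated controls; 4-parameter curves gave EC50.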

T1 sequence (P27958 1027-1657): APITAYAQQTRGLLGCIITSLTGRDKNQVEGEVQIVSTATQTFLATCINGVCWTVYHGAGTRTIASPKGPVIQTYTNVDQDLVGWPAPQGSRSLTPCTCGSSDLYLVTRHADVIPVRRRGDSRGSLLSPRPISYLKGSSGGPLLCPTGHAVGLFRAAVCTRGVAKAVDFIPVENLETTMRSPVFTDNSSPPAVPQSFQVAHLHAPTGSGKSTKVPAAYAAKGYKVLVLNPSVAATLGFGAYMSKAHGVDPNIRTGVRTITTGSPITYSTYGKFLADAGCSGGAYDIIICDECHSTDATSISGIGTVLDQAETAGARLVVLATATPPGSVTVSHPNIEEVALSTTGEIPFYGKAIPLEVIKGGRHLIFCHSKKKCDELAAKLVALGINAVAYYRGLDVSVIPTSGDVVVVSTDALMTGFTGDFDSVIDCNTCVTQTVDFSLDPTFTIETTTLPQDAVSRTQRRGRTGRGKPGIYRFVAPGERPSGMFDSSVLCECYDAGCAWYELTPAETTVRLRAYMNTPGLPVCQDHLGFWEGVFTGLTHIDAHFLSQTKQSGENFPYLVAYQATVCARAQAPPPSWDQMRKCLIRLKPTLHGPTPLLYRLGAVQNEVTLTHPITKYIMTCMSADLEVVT

O=C(N[C@H]1CCCCC/C=C\[C@@H]2C[C@@]2(C(=O)NS(=O)(=O)C2CC2)NC(=O)[C@@H]2C[C@@H](OC(=O)N3Cc4ccc(Cl)cc4C3)CN2C1=O)O[C@H]1CCOC1 [AR00334220, (1S,4R,6S,14S,18R)-5-Chloro-1,3-dihydro-isoindole-2-carboxylic acid 4-cyclopropanesulfonylaminocarbonyl-2,15-dioxo-14-(tetrahydro-furan-3-yloxycarbonylamino)-3,16-diaza-tricyclo[14.3.0.0^4,6]nonadec-7-en-18-yl ester]
IC50 (NS3-NS4A protease): < 100 nM | EC50 [1]: < 1000 nM

O=C(N[C@H]1CCCCC/C=C\[C@@H]2C[C@@]2(C(=O)NS(=O)(=O)C2CC2)NC(=O)[C@@H]2C[C@@H](OC(=O)N3Cc4ccc(Cl)cc4C3)CN2C1=O)OCCF [AR00334222, (1S,4R,6S,14S,18R)-5-Chloro-1,3-dihydro-isoindole-2-carboxylic acid 4-cyclopropanesulfonylaminocarbonyl-14-(2-fluoro-ethoxycarbonylamino)-2,15-dioxo-3,16-diaza-tricyclo[14.3.0.0^4,6]nonadec-7-en-18-yl ester]
IC50 (NS3-NS4A protease): < 100 nM | EC50 [1]: < 100 nM

CC(C)(C)CC(=O)N[C@H]1CCCCC/C=C\[C@@H]2C[C@@]2(C(=O)NS(=O)(=O)C2CC2)NC(=O)[C@@H]2C[C@@H](OC(=O)N3Cc4ccc(Cl)cc4C3)CN2C1=O [AR00334225, (1S,4R,6S,14S,18R)-5-Chloro-1,3-dihydro-isoindole-2-carboxylic acid 4-cyclopropanesulfonylaminocarbonyl-14-(3,3-dimethyl-butyrylamino)-2,15-dioxo-3,16-diaza-tricyclo[14.3.0.0^4,6]nonadec-7-en-18-yl ester]
IC50 (NS3-NS4A protease): < 100 nM | EC50 [1]: < 1000 nM

O=C(CC1CCCC1)N[C@H]1CCCCC/C=C\[C@@H]2C[C@@]2(C(=O)NS(=O)(=O)C2CC2)NC(=O)[C@@H]2C[C@@H](OC(=O)N3Cc4ccc(Cl)cc4C3)CN2C1=O [AR00334226, (1S,4R,6S,14S,18R)-5-Chloro-1,3-dihydro-isoindole-2-carboxylic acid 14-(2-cyclopentyl-acetylamino)-4-cyclopropanesulfonylaminocarbonyl-2,15-dioxo-3,16-diaza-tricyclo[14.3.0.0^4,6]nonadec-7-en-18-yl ester]
IC50 (NS3-NS4A protease): < 100 nM | EC50 [1]: < 100 nM

CC(=O)Nc1nnc(S(=O)(=O)NC(=O)[C@@]23C[C@H]2/C=C\CCCCC[C@H](NC(=O)OC(C)(C)C)C(=O)N2C[C@H](OC(=O)N4Cc5ccccc5C4)C[C@H]2C(=O)N3)s1 [AR00334247, (1S,4R,6S,14S,18R)-1,3-Dihydro-isoindole-2-carboxylic acid 4-(5-acetylamino-[1,3,4]thiadiazole-2-sulfonylaminocarbonyl)-14-tert-butoxycarbonylamino-2,15-dioxo-3,16-diaza-tricyclo[14.3.0.0^4,6]nonadec-7-en-18-yl ester]
IC50 (NS3-NS4A protease): < 100 nM | EC50 [1]: < 1000 nM

CC(C)(C)OC(=O)N[C@H]1CCCCC/C=C\[C@@H]2C[C@@]2(C(=O)NS(=O)(=O)c2ccc(C#N)cc2)NC(=O)[C@@H]2C[C@@H](OC(=O)N3Cc4ccccc4C3)CN2C1=O [AR00334248, (1S,4R,6S,14S,18R)-1,3-Dihydro-isoindole-2-carboxylic acid 14-tert-butoxycarbonylamino-4-(4-cyano-benzenesulfonylaminocarbonyl)-2,15-dioxo-3,16-diaza-tricyclo[14.3.0.0^4,6]nonadec-7-en-18-yl ester]
IC50 (NS3-NS4A protease): < 100 nM | EC50 [1]: < 1000 nM

CC(C)(C)OC(=O)N[C@H]1CCCCC/C=C\[C@@H]2C[C@@]2(C(=O)NS(=O)(=O)c2ccc([N+](=O)[O-])cc2)NC(=O)[C@@H]2C[C@@H](OC(=O)N3Cc4ccccc4C3)CN2C1=O [AR00334249, (1S,4R,6S,14S,18R)-1,3-Dihydro-isoindole-2-carboxylic acid 14-tert-butoxycarbonylamino-4-(4-nitro-benzenesulfonylaminocarbonyl)-2,15-dioxo-3,16-diaza-tricyclo[14.3.0.0^4,6]nonadec-7-en-18-yl ester]
IC50 (NS3-NS4A protease): < 100 nM | EC50 [1]: < 1000 nM
